Where two headings read alike, the source gives them in different places.
Experiments:
[1] = molecular target: T1, hMAO-B (Homo sapiens, UniProt P27338); test: hMAO-B fluorescence bioassay; type: biochemical; conditions: for SI: selectivity index for the MAO-B isoform: ratio IC50(MAO-A)/IC50(MAO-B)
T1 sequence (P27338 1-520): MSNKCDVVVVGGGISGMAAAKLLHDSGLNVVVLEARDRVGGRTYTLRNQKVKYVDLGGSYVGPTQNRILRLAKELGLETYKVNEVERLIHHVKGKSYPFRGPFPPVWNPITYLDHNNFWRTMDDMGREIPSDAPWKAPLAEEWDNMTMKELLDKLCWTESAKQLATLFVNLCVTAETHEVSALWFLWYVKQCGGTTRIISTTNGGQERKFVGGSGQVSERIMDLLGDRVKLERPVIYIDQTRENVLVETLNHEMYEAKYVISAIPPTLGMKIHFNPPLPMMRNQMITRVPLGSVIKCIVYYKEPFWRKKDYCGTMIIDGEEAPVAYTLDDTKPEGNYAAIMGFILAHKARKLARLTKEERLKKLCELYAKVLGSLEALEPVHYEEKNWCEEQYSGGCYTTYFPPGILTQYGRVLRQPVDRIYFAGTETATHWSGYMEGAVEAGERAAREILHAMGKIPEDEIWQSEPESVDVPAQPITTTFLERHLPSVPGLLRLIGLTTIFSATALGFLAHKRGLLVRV

[2] = molecular target: T2, hMAO-A (Homo sapiens, UniProt P21397); test: hMAO-A fluorescence bioassay; type: biochemical
T2 sequence (P21397 1-527): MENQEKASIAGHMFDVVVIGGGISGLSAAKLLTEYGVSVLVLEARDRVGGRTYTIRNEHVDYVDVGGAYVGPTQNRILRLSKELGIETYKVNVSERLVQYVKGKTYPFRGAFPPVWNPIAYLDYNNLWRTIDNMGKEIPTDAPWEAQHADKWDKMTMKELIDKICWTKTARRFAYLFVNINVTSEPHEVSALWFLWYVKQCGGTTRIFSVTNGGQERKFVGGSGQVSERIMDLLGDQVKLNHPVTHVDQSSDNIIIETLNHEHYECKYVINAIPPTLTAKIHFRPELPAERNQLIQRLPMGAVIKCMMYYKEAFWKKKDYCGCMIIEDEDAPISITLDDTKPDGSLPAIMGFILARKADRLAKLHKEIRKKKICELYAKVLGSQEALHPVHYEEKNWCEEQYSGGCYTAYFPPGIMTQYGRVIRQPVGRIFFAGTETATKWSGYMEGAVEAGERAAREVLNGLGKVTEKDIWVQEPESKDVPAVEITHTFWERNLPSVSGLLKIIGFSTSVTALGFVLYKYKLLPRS

[3] = molecular target: T1, hMAO-B; test: At-line nanofractionation hMAO-B screening of mixed standards; type: biochemical; conditions: mixed standards 100 μmol/L
[4] = system: SH-SY5Y cells; test: Neuroprotection against 6-OHDA-induced toxicity in SH-SY5Y cells; type: cell-based; conditions: Homo sapiens, read-out: EC50, neuroprotective effect
[5] = molecular target: T1, hMAO-B; test: Reversibility of hMAO-B inhibition; type: biochemical; conditions: KYN 46 μmol/L

SMILES	SI: selectivity index for the MAO-B isoform [1]	IC50 [2]	IC50 [1]	EC50 [4]	further results
O=C(O)/C=C/c1ccc(O)c(O)c1 [Caffeic acid]	1.840	60.9 ± 5.85 µM			IC50 ([1]; Inhibition (IC50) hMAO-B, Table 1): 33.1 ± 7.57 µM
COc1ccc(-c2coc3cc(O)ccc3c2=O)cc1O [Calycosin, reference compound]			24 µM		Activity peak in bioactivity chromatogram [3]: displayed inhibitory activity
O=C(/C=C/c1ccc(O)c(O)c1)O[C@@H]1C[C@](O)(C(=O)O)C[C@@H](O)[C@H]1O [Chlorogenic acid]		82.4 ± 14.6 µM	69.6 ± 14.4 µM		
CCCC[C@@H]1OC(=O)C2=CCCC[C@H]21 [Neocnidilide]	207.362	102 ± 13.1 µM	0.494 ± 0.132 µM	1.16 µM	Inhibitory activity against hMAO-B (in words) ([1]; phthalides): highest activity; SI: selectivity index for the MAO-B isoform ([1]; listed as neocnidilide): 207; Reversibility of hMAO-B inhibition [5]: reversible
C#CCN[C@@H]1CCc2ccccc21 [Rasagiline]				0.896 µM	Activity peak in bioactivity chromatogram [3]: displayed inhibitory activity
C[C@H](NCc1ccc(OCc2cccc(F)c2)cc1)C(N)=O [Safinamide, reference compound]				1.08 µM	Reversibility of hMAO-B inhibition [5]: reversible
COc1cc(C=O)ccc1O [Vanillin]	1.884	86.1 ± 15.3 µM	45.7 ± 2.6 µM		

From article PMC10985270 (Acta Pharmaceutica Sinica. B, 2024)
